What was measured:
Rattus norvegicus = organism: Rattus norvegicus; assay: Compound was tested for relative potency as NMDA antagonist by determining its ability to inhibit depolarizations induced by 40 uM NMDA in a cortical slice preparation.; format: functional
Mus musculus = organism: Mus musculus; assay: Minimum effective dose to prevent NMDA-induced lethality in mice; format: functional
Glutamate NMDA receptor = assay: Inhibition of [3H]-CGS- 19755 binding to rat brain membrane NMDA receptor

Structure (SMILES) | IC50 (Rattus norvegicus) [µM] | MED (Mus musculus) [mg/kg] | IC50 (Glutamate NMDA receptor) [µM]
O=C(O)C1CC2CC(Cc3nnn[nH]3)CCC2CN1 (racemic; form 2) | 1.39 | 2.5 | 0.94
O=C(O)C1CC2CC(CP(=O)(O)O)CCC2CN1 (racemic; form 2) | 1.7 | 2.5 | 0.82
O=C(O)C1CC2CC(CP(=O)(O)O)CCC2CN1 (racemic; form 1) | 0.15 | 1.25 | 0.055
O=C(O)C1CC2CC(CP(=O)(O)O)CCC2CN1 (stereo in doubt; (-)-3 R) |  |  | 0.67
O=C(O)C1CC2CC(Cc3nnn[nH]3)CCC2CN1 (stereo in doubt; (-)-2 S) | 0.82 | 1.25 | 0.42
O=C(O)C1CC2CC(Cc3nnn[nH]3)CCC2CN1 (single isomer, unassigned; (+)) | > 100 | >160 | 22.6
O=C(O)C1CC2CC(Cc3nnn[nH]3)CCC2CN1 (racemic; form 1) | 4.8 | 40 | 3.41
O=C(O)C1CC2CC(Cc3nnn[nH]3)CCC2CN1 (stereo in doubt; (+)-4 S) | 28 |  | 5.16
O=C(O)C1CC2CC(CP(=O)(O)O)CCC2CN1 (stereo in doubt; (+)-3 S) |  |  | 8.7
O=C(O)C1CC2CC(CP(=O)(O)O)CCC2CN1 (stereo in doubt; (+)-1 R) | 33 | 80 | 8.4
O=C(O)C1CC2CC(Cc3nnn[nH]3)CCC2CN1 (stereo in doubt; (-)-4 R) | 6.2 |  | 3.32
O=C(O)C1CC2CC(CP(=O)(O)O)CCC2CN1 (single isomer, unassigned; (-)) | 0.22 | 0.625 | 0.025
